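96-well plates; 48 h exposure; 5 concentrations. Endpoints by linear interpolation between flanking doses. Not reached: highest tested concentration assigned. At the GI50, growth is halved. TGI marks complete inhibition of growth.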
Experiments:
Test in all cases: NCI-60 cell line screen, 48 h
ACHN renal = tested on: ACHN renal
HCT-15 colon = tested on: HCT-15 colon
MDA-MB-231 breast = tested on: MDA-MB-231 breast
UACC-257 melanoma = tested on: UACC-257 melanoma
EKVX NSCLC = tested on: EKVX NSCLC
UACC-62 melanoma = tested on: UACC-62 melanoma
SK-MEL-28 melanoma = tested on: SK-MEL-28 melanoma
OVCAR-8 ovarian = tested on: OVCAR-8 ovarian

Compound | TGI (ACHN renal) | TGI (HCT-15 colon) | TGI (MDA-MB-231 breast) | TGI (UACC-257 melanoma) | TGI (EKVX NSCLC) | TGI (UACC-62 melanoma) | TGI (SK-MEL-28 melanoma) | TGI (OVCAR-8 ovarian) | GI50 (ACHN renal) | GI50 (HCT-15 colon) | GI50 (MDA-MB-231 breast) | GI50 (UACC-62 melanoma) | GI50 (SK-MEL-28 melanoma) | GI50 (OVCAR-8 ovarian) | GI50 (UACC-257 melanoma) | GI50 (EKVX NSCLC)
O=C(O)c1cccc([As]=[As]c2cccc(C(=O)O)c2)c1 (stereo not given) | > 100 µM | > 100 µM | 39.9 µM | > 100 µM | > 100 µM | > 100 µM | > 100 µM | > 100 µM |  |  |  |  |  |  |  | 
CC(C)(C)OC(=O)N(CCCCN(CCCn1c2c(c3ccccc3c1=O)C(=O)c1ccccc1-2)C(=O)OC(C)(C)C)CCCn1c2c(c3ccccc3c1=O)C(=O)c1ccccc1-2 | > 100 µM | > 100 µM | 47.2 µM |  |  | > 100 µM | > 100 µM | > 100 µM | 14.3 µM | 23.4 µM | 13.9 µM | 92.8 µM | > 100 µM | > 100 µM |  | 
CN[C@@H](C)C(=O)N[C@H](C(=O)N1CCC[C@H]1c1nc(C(=O)c2ccc(F)cc2)cs1)C1CCCCC1 | > 100 µM | > 95.9 µM | 20.6 µM | 31.2 µM |  | 35.2 µM | 32 µM | 29.3 µM | 26.6 µM | 27.7 µM | 0.324 µM | 16.6 µM | 16.6 µM | 11.1 µM | 15.1 µM | 
O=[N+]([O-])c1ccccc1/C=N\NC(=S)N/N=C/c1ccccc1[N+](=O)[O-] | > 100 µM | > 100 µM | > 100 µM | > 100 µM | > 100 µM | > 100 µM | > 100 µM | > 100 µM | 7.53 µM | 3.76 µM | 37.8 µM | 4.52 µM | 8.44 µM | 11.9 µM | 10.3 µM | 8.11 µM
COc1ccc(/C=C\c2cc(OC)c(OC)c(OC)c2)cc1NC(=O)/C=C/c1ccc(OC)c(OC)c1 | > 100 µM | > 100 µM | > 100 µM | > 100 µM | > 100 µM | > 100 µM | > 100 µM | > 100 µM | 5.25 µM | 4.41 µM | 25.5 µM | 3.67 µM | 3.39 µM | 5.1 µM | > 100 µM | > 100 µM
O=[N+]([O-])c1ccc(Sc2cccc[n+]2[O-])c2nonc12 | 14.2 µM | 14.7 µM | 16 µM | 24.7 µM | 31.7 µM | 22.6 µM | 6.31 µM | > 67.6 µM | 3.67 µM | 3.03 µM | 4.7 µM | 4.58 µM | 2.47 µM | 9.93 µM | 11.5 µM | 9.59 µM
O=C(CCN1CCCC1)Nc1ccc2c(Nc3ccc(F)cc3)c3ccccc3nc2c1 | 1.98 µM | 2.53 µM | 3.34 µM | 4.12 µM | 4.69 µM | 3.1 µM | 3.24 µM | 8.73 µM | 0.526 µM | 0.699 µM | 1.48 µM | 1.55 µM | 1.7 µM | 1.56 µM | 1.97 µM | 1.89 µM
CNc1c2ccccc2nc2occ(Cl)c12 | 70.5 µM | > 100 µM |  |  |  | > 100 µM | > 100 µM | > 100 µM | 24 µM | 33.8 µM |  | 33.3 µM | 48.7 µM | 37.7 µM |  | 
CN1CCN(C2=C(Cl)C(=O)c3ccccc3C2=O)CC1 | 2.94 µM | 3.41 µM | 3.99 µM | 3.2 µM | 11 µM | 3.11 µM | 3.18 µM | 3.59 µM | 1.57 µM | 1.77 µM | 1.84 µM | 1.65 µM | 1.75 µM | 1.74 µM | 1.73 µM | 3.05 µM
COc1ccc(Cn2cc3c(c2-c2ccccc2)CCc2cnoc2-3)cc1 | > 100 µM | > 100 µM | > 100 µM | > 100 µM | > 100 µM | > 100 µM | > 100 µM | > 100 µM | 0.215 µM | 0.127 µM | 0.37 µM | 0.0461 µM | 33.9 µM | 0.416 µM | 27.4 µM | 0.425 µM
CN(c1cccc(C(=O)O)c1)c1cc(O/N=[N+](\[O-])N(C)C)c([N+](=O)[O-])cc1[N+](=O)[O-] | > 100 µM | > 100 µM | > 100 µM | > 100 µM | > 100 µM | > 100 µM | > 100 µM | > 100 µM | > 100 µM | > 100 µM | > 100 µM | > 100 µM | 85.1 µM | > 100 µM | > 100 µM | > 100 µM
O=C1c2ccccc2C(=O)N1c1ccc(Cc2ccc(N3C(=O)c4ccccc4C3=O)cc2)cc1 | > 100 µM | > 100 µM | > 100 µM | > 100 µM | > 100 µM | > 100 µM | > 100 µM | > 100 µM |  |  |  |  |  |  |  | 
CC(NCCN(C)C)C1CCC2C3CCc4cc(O)ccc4C3CCC12C (stereo not given) | 3.99 µM | 9.49 µM | 4.42 µM | 3.83 µM | 17.7 µM | 3.45 µM | 5.29 µM | 11 µM |  |  |  |  |  |  |  | 
CCN(Cc1ccc(Cl)c(Cl)c1)c1ccc2nc(N)nc(N)c2c1C | 1.78 µM |  |  | 2.72 µM | 2.82 µM |  | 1.83 µM |  | < 0.01 µM |  |  |  | 0.157 µM |  | 1.25 µM | 
O=C(O)/C=C/c1c2ccc(=O)c(O)c-2oc2c(O)c(O)ccc12 | > 100 µM | > 100 µM | 66.5 µM | > 100 µM | > 100 µM | > 100 µM | > 100 µM | > 100 µM |  |  |  |  |  |  |  | 
CC(C)(C)c1cc(C2c3cc4c(cc3OC(O)(CO)C2C(=O)O)OCO4)cc(C(C)(C)C)c1O (stereo not given) (tested in a mixture with another compound) | 28.2 µM | 26 µM |  | 26.4 µM | 50.5 µM | 18.8 µM | 28.7 µM | 33.9 µM |  |  |  |  |  |  |  | 
COC(=O)NC1(NC(=O)OC)NC(=O)c2ccccc2N1 | > 100 µM | > 100 µM | > 100 µM | > 100 µM | > 100 µM | > 100 µM | > 100 µM | > 100 µM |  |  |  |  |  |  |  | 
Nc1n[n+]([O-])c2ccc(Cl)cc2[n+]1[O-] | > 100 µM | 58.9 µM | > 100 µM | 54.3 µM | 80.1 µM |  | 67.7 µM |  |  |  |  |  |  |  |  | 
COc1ccc([N+](=O)[O-])c2c(NCCCN(C)C)c(C)c(C)nc12 | > 100 µM | > 100 µM | > 100 µM | > 100 µM |  | > 100 µM | > 100 µM | > 100 µM |  |  |  |  |  |  |  | 
